# Target: T1, recombinant His-tag Y220C p53 DBD protein (Homo sapiens, UniProt P04637, Y220C)
# T1 construct: recombinant His-tag Y220C p53 DBD protein (amino acids #˜94-312)
# Experiment: In vitro DNA binding activity assay (TR-FRET): binding of His-tag Y220C p53 DBD to biotin-labeled consensus DNA
# Assay type: biochemical
# Details: SC150 = concentration to increase DNA binding by […], His-tag Y220C p53 DBD, biotin-labeled consensus DNA
row,Structure (SMILES),Y220C SC150 (μM)
1,"CN1CCC(Nc2cccc3c2cc(-c2nnc(CNC(=O)N(C)C)s2)n3CC(F)(F)F)CC1 [Compound 68B, 3,3-dimethyl-1-[(5-{4-[(1-methylpiperidin-4-yl)amino]-1-(2,2,2-trifluoroethyl)-1H-indol-2-yl}-1,3,4-thiadiazol-2-yl)methyl]urea]",** (** = 0.1 μM ≤ SC150 < 0.5 μM)
2,"CN1CC[C@@H](Nc2cccc3c2cc(-c2noc(CNC(=O)[C@H]4C[C@H](C)C4)n2)n3CC(F)(F)F)[C@@H](F)C1 [Compound 212B, (1s,3r)-N-{[3-(4-{[(3S,4R)-3-fluoro-1-methylpiperidin-4-yl]amino}-1-(2,2,2-trifluoroethyl)-1H-indol-2-yl)-1,2,4-oxadiazol-5-yl]methyl}-3-methylcyclobutane-1-carboxamide]",* (* = 0 μM ≤ SC150 < 0.1 μM)
3,"CN1CC[C@H](F)[C@H](Nc2cccc3c2cc(-c2noc(CNC(=O)c4ccn(C(C)(C)C)c4)n2)n3CC(F)(F)F)C1 [Compound 414B, 1-tert-butyl-N-{[3-(4-{[(3R,4S)-4-fluoro-1-methylpiperidin-3-yl]amino}-1-(2,2,2-trifluoroethyl)-1H-indol-2-yl)-1,2,4-oxadiazol-5-yl]methyl}-1H-pyrrole-3-carboxamide]",* (* = 0 μM ≤ SC150 < 0.1 μM)
4,"O=S1(=O)CCC(Nc2cccc3c2cc(-c2cnn(CCO)c2)n3CC(F)(F)F)CC1 [Compound 15B, 4-({2-[1-(2-hydroxyethyl)-1H-pyrazol-4-yl]-1-(2,2,2-trifluoroethyl)-1H-indol-4-yl}amino)-1λ^6-thiane-1,1-dione]",**** (**** = 1 μM ≤ SC150 < 10 μM)
5,"CN1CC[C@@H](Nc2cccc3c2cc(-c2noc(CNC(=O)c4cnc(C(C)(C)C)o4)n2)n3CC(F)(F)F)[C@@H](F)C1 [Compound 443B, 2-tert-butyl-N-{[3-(4-{[(3S,4R)-3-fluoro-1-methylpiperidin-4-yl]amino}-1-(2,2,2-trifluoroethyl)-1H-indol-2-yl)-1,2,4-oxadiazol-5-yl]methyl}-1,3-oxazole-5-carboxamide]",* (* = 0 μM ≤ SC150 < 0.1 μM)
6,"CN1CC[C@@H](Nc2cccc3c2cc(-c2noc(CNc4nccc5ccsc45)n2)n3CC(F)(F)F)[C@@H](F)C1 [Compound 445B, N-[(3S,4R)-3-fluoro-1-methylpiperidin-4-yl]-2-{5-[({thieno[2,3-c]pyridin-7-yl}amino)methyl]-1,2,4-oxadiazol-3-yl}-1-(2,2,2-trifluoroethyl)-1H-indol-4-amine]",* (* = 0 μM ≤ SC150 < 0.1 μM)
7,COC(C)(C)c1ccc(C(=O)NCc2nc(-c3cc4c(N[C@@H]5CCNC[C@@H]5F)cccc4n3CC(F)(F)F)no2)s1 [Compound 480B],* (* = 0 μM ≤ SC150 < 0.1 μM)
8,"CN1CCC(Nc2cccc3c2cc(-c2nnc(CNC(=O)c4cc[nH]c4)s2)n3CC(F)(F)F)CC1 [Compound 78B, N-[(5-{4-[(1-methylpiperidin-4-yl)amino]-1-(2,2,2-trifluoroethyl)-1H-indol-2-yl}-1,3,4-thiadiazol-2-yl)methyl]-1H-pyrrole-3-carboxamide]",* (* = 0 μM ≤ SC150 < 0.1 μM)
9,"CN1CC[C@@H](Nc2cccc3c2cc(-c2noc(CNc4cccc5c4ccn5C)n2)n3CC(F)(F)F)[C@@H](F)C1 [Compound 462B, N-[(3S,4R)-3-fluoro-1-methylpiperidin-4-yl]-2-(5-{[(1-methyl-1H-indol-4-yl)amino]methyl}-1,2,4-oxadiazol-3-yl)-1-(2,2,2-trifluoroethyl)-1H-indol-4-amine]",* (* = 0 μM ≤ SC150 < 0.1 μM)
10,"CN1CC[C@H](Nc2cccc3c2cc(-c2nnc(CN)o2)n3CC(F)(F)F)[C@H](F)C1 (racemic) [Compound 116B, (+/−)-2-[5-(aminomethyl)-1,3,4-oxadiazol-2-yl]-N-[(3R,4S)-3-fluoro-1-methylpiperidin-4-yl]-1-(2,2,2-trifluoroethyl)-1H-indol-4-amine]",*** (*** = 0.5 μM ≤ SC150 < 1 μM)
11,CC(C)(C)n1cnc(C(=O)NCc2nc(-c3cc4c(N[C@@H]5CCN(C6CC6)C[C@@H]5F)cccc4n3CC(F)(F)F)no2)c1 [Compound 329B],* (* = 0 μM ≤ SC150 < 0.1 μM)
12,"CN1CC[C@@H](Nc2cccc3c2cc(-c2noc(CNC(=O)c4cc5ccccn5n4)n2)n3CC(F)(F)F)[C@@H](F)C1 [Compound 216B, N-{[3-(4-{[(3S,4R)-3-fluoro-1-methylpiperidin-4-yl]amino}-1-(2,2,2-trifluoroethyl)-1H-indol-2-yl)-1,2,4-oxadiazol-5-yl]methyl}pyrazolo[1,5-a]pyridine-2-carboxamide]",* (* = 0 μM ≤ SC150 < 0.1 μM)
13,"CN1CC[C@@H](Nc2cccc3c2cc(-c2noc(CNC(=O)c4ccn(C(C)(C)C)c4)n2)n3CC(F)(F)F)[C@@H](F)C1 (racemic) [Compound 184B, (+/−)-tert-butyl-N-{[3-(4-{[(3R,4S)-3-fluoro-1-methylpiperidin-4-yl]amino}-1-(2,2,2-trifluoroethyl)-1H-indol-2-yl)-1,2,4-oxadiazol-5-yl]methyl}-1H-pyrrole-3-carboxamide]",* (* = 0 μM ≤ SC150 < 0.1 μM)
14,"CNCc1nnc(-c2cc3c(N[C@@H]4CCN(C)C[C@@H]4F)cccc3n2CC(F)(F)F)s1 (racemic) [Compound 43B, (+/−)-N-[(3R,4S)-3-fluoro-1-methylpiperidin-4-yl]-2-{5-[(methylamino)methyl]-1,3,4-thiadiazol-2-yl}-1-(2,2,2-trifluoroethyl)-1H-indol-4-amine]",**** (**** = 1 μM ≤ SC150 < 10 μM)
15,CN1CC[C@@H](Nc2cccc3c2cc(-c2noc(CNC(=O)[C@@H]4C[C@H]4c4ccccc4)n2)n3CC(F)(F)F)[C@@H](F)C1 (racemic) [Compound 185B],* (* = 0 μM ≤ SC150 < 0.1 μM)
16,"CN1CC[C@@H](Nc2cccc3c2cc(-c2noc(CNC(=O)c4ccn(C5(C)COC5)c4)n2)n3CC(F)(F)F)[C@@H](F)C1 [Compound 386B, N-{[3-(4-{[(3S,4R)-3-fluoro-1-methylpiperidin-4-yl]amino}-1-(2,2,2-trifluoroethyl)-1H-indol-2-yl)-1,2,4-oxadiazol-5-yl]methyl}-1-(3-methyloxetan-3-yl)-1H-pyrrole-3-carboxamide]",* (* = 0 μM ≤ SC150 < 0.1 μM)
17,"CCC(C)(C)n1ccc(C(=O)NCc2nc(-c3cc4c(N[C@@H]5CCN(C)C[C@@H]5F)cccc4n3CC(F)(F)F)no2)c1 [Compound 427B, N-{[3-(4-{[(3S,4R)-3-fluoro-1-methylpiperidin-4-yl]amino}-1-(2,2,2-trifluoroethyl)-1H-indol-2-yl)-1,2,4-oxadiazol-5-yl]methyl}-1-(2-methylbutan-2-yl)-1H-pyrrole-3-carboxamide]",* (* = 0 μM ≤ SC150 < 0.1 μM)
18,"CN1CC[C@@H](Nc2cccc3c2cc(-c2noc(CNC(=O)c4ccn(CC5CC5)c4)n2)n3CC(F)(F)F)[C@@H](F)C1 [Compound 241B, 1-(cyclopropylmethyl)-N-{[3-(4-{[(3S,4R)-3-fluoro-1-methylpiperidin-4-yl]amino}-1-(2,2,2-trifluoroethyl)-1H-indol-2-yl)-1,2,4-oxadiazol-5-yl]methyl}-1H-pyrrole-3-carboxamide]",* (* = 0 μM ≤ SC150 < 0.1 μM)
19,"CN1CC[C@@H](Nc2cccc3c2cc(-c2nc(CNC(=O)c4ccsc4)no2)n3CC(F)(F)F)[C@@H](F)C1 (racemic) [Compound 278B, (+/−)-N-{[5-(4-{[(3R,4S)-3-fluoro-1-methylpiperidin-4-yl]amino}-1-(2,2,2-trifluoroethyl)-1H-indol-2-yl)-1,2,4-oxadiazol-3-yl]methyl}thiophene-3-carboxamide]",* (* = 0 μM ≤ SC150 < 0.1 μM)
20,"CN1CCC(Nc2cccc3c2cc(-c2noc(CNC(=O)[C@@H]4C[C@H]4F)n2)n3CC(F)(F)F)CC1 (racemic) [Compound 145B, (1S,2R)-2-fluoro-N-[(3-{4-[(1-methylpiperidin-4-yl)amino]-1-(2,2,2-trifluoroethyl)-1H-indol-2-yl}-1,2,4-oxadiazol-5-yl)methyl]cyclopropane-1-carboxamide]",* (* = 0 μM ≤ SC150 < 0.1 μM)
21,"COc1ccccc1C(=O)NCc1nnc(-c2cc3c(N[C@H]4CCN(C)C[C@H]4F)cccc3n2CC(F)(F)F)o1 (racemic) [Compound 115B, (+/−)-N-{[5-(4-{[(3R,4S)-3-fluoro-1-methylpiperidin-4-yl]amino}-1-(2,2,2-trifluoroethyl)-1H-indol-2-yl)-1,3,4-oxadiazol-2-yl]methyl}-2-methoxybenzamide]",** (** = 0.1 μM ≤ SC150 < 0.5 μM)
22,"O=S1(=O)CCC(Nc2cccc3c2cc(-c2cnn(Cc4cccnc4)c2)n3CC(F)(F)F)CC1 [Compound 16B, 4-[(2-{1-[(pyridin-3-yl)methyl]-1H-pyrazol-4-yl}-1-(2,2,2-trifluoroethyl)-1H-indol-4-yl)amino]-1λ^6-thiane-1,1-dione]",**** (**** = 1 μM ≤ SC150 < 10 μM)

# Same assay, conditions: concentration to increase DNA binding by […], incubated at either 27° C. or 29° C. for 60 min
row,Structure (SMILES),SC150 (μM)
1,"COc1cccc(-c2cc3c(NC4CCS(=O)(=O)CC4)cccc3n2CC(F)(F)F)c1 [Compound 13A, 4-{[2-(3-methoxyphenyl)-1-(2,2,2-trifluoroethyl)-1H-indol-4-yl]amino}-1λ^6-thiane-1,1-dione]",+++ (+++ = 5 μM ≤ SC150 < 10 μM)
2,"CNC(=O)c1cccc(-c2cc3c(NC4CCS(=O)(=O)CC4)cccc3n2CC(F)(F)F)c1 [Compound 22A, 3-{4-[(1,1-dioxo-1λ^6-thian-4-yl)amino]-1-(2,2,2-trifluoroethyl)-1H-indol-2-yl}-N-methylbenzamide]",++ (++ = 2 μM ≤ SC150 < 5 μM)
3,"CN1CCC(NCc2ccc3c(c2)cc(-c2ccc(CNc4ccc(S(C)(=O)=O)cc4)cc2)n3CC(F)(F)F)CC1 [Compound 36A, N-{[2-(4-{[(4-methanesulfonylphenyl)amino]methyl}phenyl)-1-(2,2,2-trifluoroethyl)-1H-indol-5-yl]methyl}-1-methylpiperidin-4-amine]",++ (++ = 2 μM ≤ SC150 < 5 μM)

# Source: patent US11807644B2 (PMV Pharmaceuticals, Inc., priority 2020, dated 2023)
